From US20150094328A1, “4-Azaindole Derivatives” (Eisai R&D Management Co., Ltd., priority 2013, published 2015)

Test system: male Crlj: WI rats
Test: Morris water maze test in ibotenic acid-induced learning disability model
Type: in vivo, rat
Method: Ibotenic acid at 5 μg/0.5 μL was injected into both basal nuclei of 8-week old male Crlj: WI rats, and a Morris water maze test was performed 10-14 days after ibotenic acid injection. It has been reported that rats in which basal forebrain was lesioned by ibotenic acid injection show learning disability in the Morris water maze test. (Pharmacopsychiat, 1999, 32, 242-247). The test is considered a model of spatial learning and memory.
Learning trials were performed twice a day at an interval of 3 hours for 4 days (8 times in total), and probe trials were performed once the day after completion of the learning trials. Each test compound was dissolved in a 0.5% methylcellulose in water and orally administered 1 hour before the first trial on each day of the learning trials and 1 hour before the trial on the day of the probe trials. […]
In learning trials, the animal was put into water and goal latency and swimming distance to reach the platform were measured (measurement time: 90 seconds at the longest) by a video image behavioral analysis device (Etho Vision XT, Noldus Information Technology Inc.). […]
In probe trials, the platform was removed from the pool. The animal was put into water, and the swimming time in the quadrant where the platform had been located in the learning trials and the frequency of entry into the platform area where the platform had been located in the learning trials were measured by Etho Vision XT.
Each value was shown as an average and a standard error (n=10). The statistical significance between a control group and a vehicle group was analyzed by the independent t-test. The statistical significance between the vehicle group and each sample group was analyzed by one-way analysis of variance and then by Dunnett's multiple comparison test. […]

Measured: Goal latency [mean ± SEM]

O=C(N[C@H]1CCCC[C@@H]1O)c1cn(Cc2ccc(F)cc2)c2cccnc12 [Example 5, 1-(4-Fluorobenzyl)-N-((1S,2S)-2-hydroxycyclohexyl)-1H-pyrrolo[3,2-b]pyridine-3-carboxamide]
[90 ± 0.00] sec.: Trial 1, 0.1 mg/kg p.o. | Trial 1, 0.3 mg/kg p.o. | Trial 2, 0.1 mg/kg p.o.
